Assays:
[1] = system: unilateral ventilated minipig; test: Unilateral ventilated minipig model as a proxy of VQ-mismatch; assay type: in vivo; settings: inhaled application
plasma proteins [2] = test: Protein binding via Transil assay, monkey plasma; assay type: in vitro ADME
Source text: (§1) The distribution of a test substance between Transil® (phosphatidylcholine lipid bilayers immobilized on silica beads) and plasma is a characteristic feature of any pharmaceutical compound and is dependent on its extent of binding to plasma proteins. By comparing the distribution between Transil® and buffer with the distribution between Transil® and plasma of any species of interest, the unbound fraction in the plasma of the respective animal species can be calculated in vitro. The respective plasma and buffer concentrations were determined via a radioactivity analysis. A detailed description of the method and its validation was published by Schuhmacher et al. (2).

plasma proteins [3] = test: Protein binding via Transil assay, dog plasma; assay type: in vitro ADME
Source text: as §1

plasma proteins [4] = test: Protein binding via Transil assay, rat plasma; assay type: in vitro ADME
Source text: as §1

[5] = system: acetylcholine [ACh] rat model; test: Acetylcholine [ACh] rat model, bronchodilation; settings: in vivo
soluble guanylyl cyclase = test: Efficacy under experimental conditions of oxidative stress (ODQ, L-NAME treatment); assay type: in vivo

## O=C(O)c1ccc(CCN(CCc2ccccc2OCc2ccc(-c3ccc(C(F)(F)F)cc3)cc2Cl)[C@H]2CCCc3nc(C(=O)O)ccc32)cc1 [Comparative example 11, (5S)-5-{[2-(4-carboxyphenyl)ethyl][2-(2-{[3-chloro-4′-(trifluoromethyl)[biphenyl]-4-yl]methoxy}phenyl)ethyl]amino}-5,6,7,8-tetrahydroquinoline-2-carboxylic Acid]
[1]
  effect on PAP and oxygenation: lowered PAP without negative effects on oxygenation
Plasma proteins [2]
  free fraction, lower than comparative example 1: 2 times lower
Plasma proteins [3]
  fraction unbound, lower than comparative example 1: 10 times lower
Plasma proteins [4]
  fraction unbound, lower than comparative example 1: 1.6 times lower
[5]
  effect on ventilation: bronchodilatory effect
Soluble guanylyl cyclase
  efficacy under oxidative stress: enhanced

Reference: patent US20250281480A1, “PHARMACEUTICAL DRY POWDER INHALATION FORMULATION” (Bayer Aktiengesellschaft, priority 2021, published 2025)
